Laboratory results as given in US12180461B2 (priority 2018, dated 2024).
Values after ≈ are worked out from the molar mass of the structure shown. Like-named read-outs stand apart in the source and are kept apart here.

How the values were obtained:
[1] = system: Legionella pneumophila isolates; assay: microbe, parasite or virus in culture; type: cell-based; conditions: for MIC50 / MIC90: Legionella pneumophila; for MIC50: read-out: MIC50 (average); for MIC90: read-out: MIC90 (average)
[2] = system: Staphylococcus aureus (ATCC strain 29213); assay: MIC of quality control strain on Mueller-Hinton agar and on Lasarus medium; type: cell-based
[3] = system: various strains of L. pneumophila; type: cell-based
rats = conditions: rat, in vivo, po
Legionella = type: cell-based
[4] = 92 Legionella pneumophila isolates on Lasarus solid medium
[5] = ATCC29213, S. aureus ATCC 29213 on Lasarus medium, read-out: MIC100 (on Lasarus medium)
[6] = ATCC29213, S. aureus ATCC 29213 on standard Mueller-Hinton agar, read-out: MIC100 (on M-Hinton)
[7] = average across 92 Legionella pneumophila isolates on Lasarus solid medium

| Molecule | Ranges (MIC100) [1, 4] [µg/mL] | MIC50 [1] [µg/mL] | MIC90 [1] [µg/mL] | LD50 (rats) [mg/kg] | MIC50 (Legionella) [mM] | MIC90 (Legionella) [mM] | further results |
| --- | --- | --- | --- | --- | --- | --- | --- |
| CC1(C)S[C@@H]2[C@H](NC(=O)[C@H](N)c3ccccc3)C(=O)N2[C@H]1C(=O)O [Ampacilin] |  |  |  |  |  |  | MIC50 (average) [1]: 8 µg/mL (≈ 22.9 µM); MIC90 (average) [1]: 32 µg/mL (≈ 91.6 µM); Ranges (MIC100) [1]: 1 to 32 µg/mL |
| CC[C@H]1OC(=O)[C@H](C)[C@@H](O[C@H]2C[C@@](C)(OC)[C@@H](O)[C@H](C)O2)[C@H](C)[C@@H](O[C@@H]2O[C@H](C)C[C@H](N(C)C)[C@H]2O)[C@](C)(O)C[C@@H](C)CN(C)[C@H](C)[C@@H](O)[C@]1(C)O [Azithromycin] | 0.008 to 0.25 | 0.03 (≈ 0.0401 µM) | 0.125 (≈ 0.167 µM) |  |  |  | MIC [2, 5]: 2 µg/mL; MIC [2, 6]: 2 µg/mL; number of strains that could grow (on average) ([3]; BCYE, antibiotic 0.25 μg/ml): more than 20 strains; number of strains that could grow (on average) ([3]; BCYE, antibiotic 0.5 μg/ml): > 5 strains; number of strains tested that could grow (on average) ([3]; Lasarus medium, antibiotic 0.03 μg/ml): ~20 strains; number of strains tested that could grow ([3]; Lasarus medium, antibiotic 0.125 μg/ml): None; number of strains that could grow (on average) ([3]; medium (Lasarus), antibiotic 0.06 μg/ml): less than 15 strains |
| [Ba+2].[Cl-].[Cl-] [BaCl2, barium chloride] |  |  |  | 78 | 4 | 9 |  |
| [Ca+2].[Cl-].[Cl-] [CaCl2, calcium chloride] |  |  |  | 1000 | 9 | 18 |  |
| O=C(N[C@H](CO)[C@H](O)c1ccc([N+](=O)[O-])cc1)C(Cl)Cl [Chloramphenicol] | 0.25 to 1 | 0.5 (≈ 1.55 µM) | 0.5 (≈ 1.55 µM) |  |  |  | MIC [2, 5]: 4 µg/mL; MIC [2, 6]: 4 µg/mL |
| O=C(O)c1cn(C2CC2)c2cc(N3CCNCC3)c(F)cc2c1=O [Ciprofloxacin] | 0.008 to 0.06 | 0.03 (≈ 0.0905 µM) | 0.06 (≈ 0.181 µM) |  |  |  |  |
| [Cl-].[Cs+] [CsCl, caesium chloride] |  |  |  | 2600 | 18 | 37 |  |
| C[C@H]1COc2c(N3CCN(C)CC3)c(F)cc3c(=O)c(C(=O)O)cn1c23 [Levofloxacin] | 0.008 to 0.06 | 0.03 (≈ 0.083 µM) | 0.06 (≈ 0.166 µM) |  |  |  | MIC [2, 5]: 0.25 µg/mL; MIC [2, 6]: 0.25 µg/mL; number of strains that could grow (on average) ([3]; BCYE, antibiotic 1 μg/ml): more than 25 strains; number of strains that could grow (on average) ([3]; BCYE, antibiotic 2 μg/ml): more than 15 strains; number of strains tested that could grow (on average) ([3]; Lasarus medium, antibiotic 0/03 μg/ml): ~30 strains |
| [Cl-].[Li+] [LiCl, lithium chloride] |  |  |  | 526 | 75 | 75 |  |
| [Cl-].[Cl-].[Mg+2] [MgCl, magnesium chloride] |  |  |  | 2800 | 37 | 75 |  |
| [Cl-].[Na+] [NaCl, sodium chloride] |  |  |  | 3000 | 150 | 150 |  |
| [Cl-].[Rb+] [RbCl, rubidium chloride] |  |  |  | 4440 | 150 | 150 |  |
| CO[C@H]1/C=C/O[C@@]2(C)Oc3c(C)c(O)c4c(O)c(c(/C=N/N5CCN(C)CC5)c(O)c4c3C2=O)NC(=O)/C(C)=C\C=C\[C@H](C)[C@H](O)[C@@H](C)[C@@H](O)[C@@H](C)[C@H](OC(C)=O)[C@@H]1C [Rifampacin] | 0.002 to 0.008 | 0.004 (≈ 0.00486 µM) | 0.008 (≈ 0.00972 µM) |  |  |  | MIC [2, 5]: 0.016 µg/mL; MIC [2, 6]: 0.016 µg/mL; number of strains that could grow (on average) ([3]; BCYE, antibiotic 0.06 μg/ml): more than 30 strains; number of strains that could grow (on average) ([3]; BCYE, antibiotic 0.125 μg/ml): more than 15 strains; number of strains tested that could grow (on average) ([3]; Lasarus medium, antibiotic 0.004 μg/ml, quadruplicate): ~35 strains; number of strains that could grow (on average), reduced number ([3]; medium, antibiotic concentration printed as 0.004 μg/ml (second mention)): less than 15 strains |
| [Cl-].[Cl-].[Sr+2] [SrCl, strontium chloride] |  |  |  | 2250 | 18 | 18 |  |
| CN(C)[C@@H]1C(O)=C(C(N)=O)C(=O)[C@@]2(O)C(O)=C3C(=O)c4c(O)cccc4[C@@](C)(O)[C@H]3C[C@@H]12 [Tetracycline] | 32 to 128 | 128 (≈ 288 µM) | 128 (≈ 288 µM) |  |  |  |  |
| Gentamycin | 0.06 to 1 |  |  |  |  |  | MIC50 (average) [1, 7]: 0.25 µg/mL; MIC90 (average) [1, 7]: 0.5 µg/mL |
| beryllium sulfate [BeSO4] |  |  |  |  | 4 | 4 |  |
